Experimental data taken from patent publication US8461107B2 (Merck Sharp & Dohme Corp., priority 2008, dated 2013).

Target: T1, HCV genotype 1b (BK) NS3 modified with a R155K mutation (Hepatitis C virus genotype 1b, UniProt P26663, R1181K)
T1 construct: HCV genotype 1b (BK) NS3 modified with a R155K mutation
Assay: HCV NS3 protease time-resolved fluorescence (TRF) assay, NS3 protease 1b R155K Ki activity
Type: biochemical
Details: HCV genotype 1b (BK) NS3 with R155K mutation; TRF peptide substrate 100 nM; Ki derived from IC50
Protocol: The HCV NS3 protease inhibitory activity of the present compounds may be tested using assays known in the art. One such assay is HCV NS3 protease time-resolved fluorescence (TRF) assay as described below and in International Patent Application Publication WO 2006/102087. Other examples of such assays are described in e.g., International Patent Application Publication WO 2005/046712.
A NS3 protease assay can be performed, for example, in a final volume of 100 μl assay buffer containing 50 mM HEPES, pH 7.5, 150 mM NaCl, 15% glycerol, 0.15% TRITON X-100, 10 mM DTT, and 0.1% PEG 8000. NS3 and NS4A protease is pre-incubated with various concentrations of inhibitors in DMSO for 30 minutes. The reaction is initiated by adding the TRF peptide substrate (final concentration 100 nM). NS3 mediated hydrolysis of the substrate is quenched after 1 hour at room temperature with 100 μl of 500 mM MES, pH 5.5. Product fluorescence is detected using either a VICTOR V2 or FUSION fluorophotometer (Perkin Elmer Life and Analytical Sciences) with excitation at 340 nm and emission at 615 nm with a 400 μs delay. Testing concentrations of different enzyme forms are selected to result in a signal to background ratio (S/B) of 10-30. IC50 values are derived using a standard four-parameter fit to the data. Ki values are derived from IC50 values using the following formula, IC50=Ki(1+[S]/KM), Eqn (1), where [S] is the concentration of substrate peptide in the reaction and KM is the Michaelis constant. See P. Gallinari et al., 38 BIOCHEM. 5620-32 (1999); P. Gallinari et al., 72 J. VIROL. 6758-69 (1998); M. Taliani et al., 240 ANAL. BIOCHEM. 60-67 (1996).
The HCV NS3 protease inhibitory activity was measured using the protease time-resolved fluorescence (TRF) assay as described below and in International Patent Application Publication WO 2006/102087. The assay was performed with HCV genotype 1b (BK) NS3 modified with a R155K mutation.
The assay was performed in a final volume of 100 μl in assay buffer containing 50 mM HEPES, pH 7.5, 150 mM NaCl, 15% glycerol, 0.15% TRITON X-100, 10 mM DTT, and 0.1% PEG 8000. NS3 and NS4A protease is pre-incubated with various concentrations of inhibitors in DMSO for 30 minutes. The reaction is initiated by adding the TRF peptide substrate (final concentration 100 nM). NS3 mediated hydrolysis of the substrate is quenched after 1 hour at room temperature with 100 μl of 500 mM MES, pH 5.5. Product fluorescence is detected using either a VICTOR V2 or FUSION fluorophotometer (Perkin Elmer Life and Analytical Sciences) with excitation at 340 nm and emission at 615 nm with a 400 μs delay. Testing concentrations of the enzyme containing the R155K mutation were selected to result in a signal to background ratio (S/B) of 10-30. IC50 values are derived using a standard four-parameter fit to the data. Ki values are derived from IC50 values using the following formula, IC50=Ki(1+[S]/KM), Eqn (1), where [S] is the concentration of substrate peptide in the reaction and KM is the Michaelis constant. See P. Gallinari et al., 38 BIOCHEM. 5620-32 (1999); P. Gallinari et al., 72 J. VIROL. 6758-69 (1998); M. Taliani et al., 240 ANAL. BIOCHEM. 60-67 (1996).

SMILES | Ki [pM]
C=C[C@@H]1C[C@]1(NC(=O)[C@@H]1C[C@@H]2CN1C(=O)[C@H](C1CCCC1)NC(=O)O[C@@H]1CCC[C@H]1C/C=C/Cn1c(cc3ccccc3c1=O)O2)C(=O)NS(=O)(=O)C1CC1 | 100 to 500
C=C[C@@H]1C[C@]1(NC(=O)[C@@H]1C[C@@H]2CN1C(=O)[C@H](C1CCCC1)NC(=O)O[C@@H]1CCC[C@H]1CC1CC1CCn1c(cc3cc(Cl)ccc3c1=O)O2)C(=O)NS(=O)(=O)C1CC1 (some centres unmarked) | 100 to 500
C=C[C@@H]1C[C@]1(NC(=O)[C@@H]1C[C@@H]2CN1C(=O)[C@H](C1CCCC1)NC(=O)O[C@@H]1CCC[C@H]1CCCC1CC1Cn1c(cc3ccccc3c1=O)O2)C(=O)NS(=O)(=O)C1CC1 (some centres unmarked) | 500 to 1000
CC[C@@H]1C[C@]1(NC(=O)[C@@H]1C[C@@H]2CN1C(=O)[C@H](C1CCCC1)NC(=O)O[C@@H]1CCC[C@H]1CC/C=C/Cn1c(nc3cc(C)ccc3c1=O)O2)C(=O)NS(=O)(=O)C1CC1 [(1R,14E,18S,22R,26S,29S)-26-cyclopentyl-N-((1R,2R)-1-{[(cyclopropylsulfonyl)amino]carbonyl}-2-ethylcyclopropyl)-7-methyl-11,24,27-trioxo-2,23-dioxa-4,12,25,28-tetraazapentacyclo[26.2.1.0^3,12.0^5,10.0^18,22]hentriaconta-3,5,7,9,14-pentaene-29-carboxamide] | 100 to 500
C=C[C@@H]1C[C@]1(NC(=O)[C@@H]1C[C@@H]2CN1C(=O)[C@H](C1CCCC1)NC(=O)O[C@@H]1CCC[C@H]1CCCCCn1c(ccc(Br)c1=O)O2)C(=O)NS(=O)(=O)C1CC1 [(1R,14R,18R,22S,25S)-6-bromo-22-cyclopentyl-N-((1R,2S)-1-{[(cyclopropylsulfonyl)amino]carbonyl}-2-vinylcyclopropyl)-7,20,23-trioxo-2,19-dioxa-8,21,24-triazatetracyclo[22.2.1.0^3,8.0^14,18]heptacosa-3,5-diene-25-carboxamide] | 100 to 500
C=C[C@@H]1C[C@]1(NC(=O)[C@@H]1C[C@@H]2CN1C(=O)[C@H](C1CCCC1)NC(=O)O[C@@H]1CCC[C@H]1CCCCCn1c(cccc1=O)O2)C(=O)NS(=O)(=O)C1CC1 [(1R,14R,18R,22S,25S)-22-cyclopentyl-N-((1R,2S)-1-{[(cyclopropylsulfonyl)amino]carbonyl}-2-vinylcyclopropyl)-7,20,23-trioxo-2,19-dioxa-8,21,24-triazatetracyclo[22.2.1.0^3,8.0^14,18]heptacosa-3,5-diene-25-carboxamide] | 100 to 500
C=C[C@@H]1C[C@]1(NC(=O)[C@@H]1C[C@@H]2CN1C(=O)[C@H](C1CCCC1)NC(=O)O[C@@H]1CCC[C@H]1CCCCCn1c(ccc(-c3ccccc3)c1=O)O2)C(=O)NS(=O)(=O)C1CC1 [(1R,14R,18R,22S,25S)-22-cyclopentyl-N-((1R,2S)-1-{[(cyclopropylsulfonyl)amino]carbonyl}-2-vinylcyclopropyl)-7,20,23-trioxo-6-phenyl-2,19-dioxa-8,21,24-triazatetracyclo[22.2.1.0^3,8.0^14,18]heptacosa-3,5-diene-25-carboxamide] | 100 to 500
C=C[C@@H]1C[C@]1(NC(=O)[C@@H]1C[C@@H]2CN1C(=O)[C@H](C1CCCC1)NC(=O)O[C@@H]1CCC[C@H]1CCCCCn1c(nc3cc(Cl)ccc3c1=O)O2)C(=O)NS(=O)(=O)C1(C)CC1 [(1R,18R,22R,26S,29S)-7-chloro-26-cyclopentyl-N-[(1R,2S)-1-({[(1-methylcyclopropyl)sulfonyl]amino}carbonyl)-2-vinylcyclopropyl]-11,24,27-trioxo-2,23-dioxa-4,12,25,28-tetraazapentacyclo[26.2.1.0^3,12.0^5,10.0^18,22]hentriaconta-3,5,7,9-tetraene-29-carboxamide] | < 100
C=C[C@@H]1C[C@]1(NC(=O)[C@@H]1C[C@@H]2CN1C(=O)[C@H](C1CCCC1)NC(=O)O[C@@H]1CCC[C@H]1CCCCCn1c(nc3cc(OC)ccc3c1=O)O2)C(=O)NS(=O)(=O)C1(C)CC1 [(1R,18R,22R,26S,29S)-26-cyclopentyl-7-methoxy-N-[(1R,2S)-1-({[(1-methylcyclopropyl)sulfonyl]amino}carbonyl)-2-vinylcyclopropyl]-11,24,27-trioxo-2,23-dioxa-4,12,25,28-tetraazapentacyclo[26.2.1.0^3,12.0^5,10.0^18,22]hentriaconta-3,5,7,9-tetraene-29-carboxamide] | < 100
CC[C@@H]1C[C@]1(NC(=O)[C@@H]1C[C@@H]2CN1C(=O)[C@H](C1CCCC1)NC(=O)O[C@@H]1C[C@H]1CCCCCn1c(cc3ccccc3c1=O)O2)C(=O)NS(=O)(=O)C1CC1 [(1aR,5S,8S,10R,23aR)-5-cyclopentyl-N-((1R,2R)-1-{[(cyclopropylsulfonyl)amino]carbonyl}-2-ethylcyclopropyl)-3,6,17-trioxo-1,1a,3,4,5,6,9,10,19,20,21,22,23,23a-tetradecahydro-8H,17H-7,10-methanocyclopropa[18,19][1,10,3,6,12]dioxatriazacyclononadecino[12,11-b]isoquinoline-8-carboxamide] | 100 to 500
C=C[C@@H]1C[C@]1(NC(=O)[C@@H]1C[C@@H]2CN1C(=O)[C@H](C1CCCC1)NC(=O)O[C@@H]1C[C@H]1CCCCCn1c(cc3ccccc3c1=O)O2)C(=O)NS(=O)(=O)C1CC1 [(1aR,5S,8S,10R,23aR)-5-cyclopentyl-N-((1R,2S)-1-{[(cyclopropylsulfonyl)amino]carbonyl}-2-vinylcyclopropyl)-3,6,17-trioxo-1,1a,3,4,5,6,9,10,19,20,21,22,23,23a-tetradecahydro-8H,17H-7,10-methanocyclopropa[18,19][1,10,3,6,12]dioxatriazacyclononadecino[12,11-b]isoquinoline-8-carboxamide] | < 100
CC[C@@H]1C[C@]1(NC(=O)[C@@H]1C[C@@H]2CN1C(=O)[C@H](C1CCCC1)NC(=O)O[C@H]1C[C@@H]1CCCCCn1c(cc3ccccc3c1=O)O2)C(=O)NS(=O)(=O)C1CC1 [(1aS,5S,8S,10R,23aS)-5-cyclopentyl-N-((1R,2R)-1-{[(cyclopropylsulfonyl)amino]carbonyl}-2-ethylcyclopropyl)-3,6,17-trioxo-1,1a,3,4,5,6,9,10,19,20,21,22,23,23a-tetradecahydro-8H,17H-7,10-methanocyclopropa[18,19][1,10,3,6,12]dioxatriazacyclononadecino[12,11-b]isoquinoline-8-carboxamide] | 100 to 500
C=C[C@@H]1C[C@]1(NC(=O)[C@@H]1C[C@@H]2CN1C(=O)[C@H](C1CCCC1)NC(=O)O[C@H]1C[C@@H]1CCCCCn1c(cc3ccccc3c1=O)O2)C(=O)NS(=O)(=O)C1CC1 [(1aS,5S,8S,10R,23aS)-5-cyclopentyl-N-((1R,2S)-1-{[(cyclopropylsulfonyl)amino]carbonyl}-2-vinylcyclopropyl)-3,6,17-trioxo-1,1a,3,4,5,6,9,10,19,20,21,22,23,23a-tetradecahydro-8H,17H-7,10-methanocyclopropa[18,19][1,10,3,6,12]dioxatriazacyclononadecino[12,11-b]isoquinoline-8-carboxamide] | 100 to 500
CC[C@@H]1C[C@]1(NC(=O)[C@@H]1C[C@@H]2CN1C(=O)[C@H](C1CCCC1)NC(=O)O[C@@H]1CCC[C@H]1CC/C=C/Cn1c(nc3ccccc3c1=O)O2)C(=O)NS(=O)(=O)C1CC1 [(3aR,7S,10S,12R,22E,25aS)-7-cyclopentyl-N-((1R,2R)-1-{[(cyclopropylsulfonyl)amino]carbonyl}-2-ethylcyclopropyl)-5,8,19-trioxo-1,2,3,3a,5,6,7,8,11,12,21,24,25,25a-tetradecahydro-10H,19H-9,12-methanocyclopenta[18,19][1,10,3,6,12]dioxatriazacyclononadecino[11,12-b]quinazoline-10-carboxamide] | 100 to 500
